Marks after values point to notes of the source that are not given here.
Tests used:
Assay type in all cases: cell-based
[1] = tested on: Pseudomonas aeruginosa, Escherichia coli, Enterobacter cloacae, Acinetobacter calcoaceticus; assay: Repeat in-can challenge test, same conditions (Table 2); conditions: Dicyandiamide 5,000 ppm
Method: (§1) Various formulations were made in accordance with the present disclosure and tested for performance. In one challenge test, the efficacy of dicyandiamide as an adjuvant for BIT was evaluated using modified ASTM D2574-97 “Standard Test Method for Resistance of Emulsion Paints in the Container to Attack by Microorganisms” with higher inoculation volumes and frequency. A standard consortium of four (4) bacterial populations: Pseudomonas aeruginosa, Escherichia coli, Enterobacter cloacae, Acinetobacter calcoaceticus was used to inoculate three (3) different samples at ten percent (10%), five percent (5%), or two and a half percent (2.5%) of the sample size. At twenty-four (24) hours and seventy-two (72) hours after each inoculation, a portion of each sample was streaked on tryptic soy agar. A dilution plate count was performed at the last seventy-two (72) hour time point.
(§2) Example data provided in Tables 1, 2 and 3 should be understood as indicating the degree of microbial growth observed for a given data point unless otherwise indicated. In particular, each plate is ranked from 0 through 5c (i.e., one of 0, 1, 2, 3, 4, 5, or 5c) according to the degree of observed microbial growth, where: a “0” ranking indicates no growth; a “1” ranking indicates one (1) through five (5) observed colony forming unit (cfu), i.e., the plate was very lightly contaminated; a “2” ranking indicates six (6) through fifteen (15) cfu, i.e., the plate was lightly contaminated; a “3” ranking indicates sixteen (16) through thirty (30) cfu, i.e., the plate was moderately contaminated; a “4” ranking indicates thirty-one (31) through forty-five (45) cfu, i.e., the plate was heavily contaminated; a “5” ranking indicates greater than (45) cfu, i.e., the plate was severely contaminated; and a “5c” ranking indicates confluent growth, i.e., the plate was very severely contaminated. Thus, for instance, Table 1, Challenge 1 at 24 h for BIT 50 ppm has a value of 5 indicating greater than forty-five (45) cfu were observed. As another example for illustration, Table 1, Challenge 1 at 24 h for dicyandiamide 5,000 ppm+BIT 50 ppm has a value of 1 indicating one (1) through five (5) cfu was observed.

[2] = tested on: Pseudomonas aeruginosa, Escherichia coli, Enterobacter cloacae, Acinetobacter calcoaceticus; assay: In-can challenge test, modified ASTM D2574-97 (Table 1)
Method: as §1, §2

microbial growth = assay: In-can challenge test of dicyandiamide as adjuvant for MIT (Table 3); conditions: for degree of microbial growth (plate ranking) / passing result of challenge test: Dicy 0
Description: However, using a combination of MIT and dicyandiamide can allow for effective microbial control at MIT concentrations as low as 20 ppm.
as §2

N#CN=C(N)N [Dicyandiamide, 2-cyanoguanidine]
degree of microbial growth (plate ranking) ([1]; Challenge 1 (10%), 24 h): 5c
degree of microbial growth (plate ranking) ([1]; Challenge 1 (10%), 72 h): 5c
degree of microbial growth (plate ranking) ([1]; Challenge 2 (5%), 72 h): 5c
degree of microbial growth (plate ranking) ([1]; Challenge 3 (2.5%), 24 h): 5c
dilution plate count ([1]; Challenge 3 (2.5%), 72 h): 2.4 × 10^7
degree of microbial growth (plate ranking) ([2]; Dicyandiamide 5,000 ppm, Challenge 1 (10%), 24 h): 5c
degree of microbial growth (plate ranking) ([2]; Dicyandiamide 5,000 ppm, Challenge 1 (10%), 72 h): 5c
degree of microbial growth (plate ranking) ([2]; Dicyandiamide 5,000 ppm, Challenge 2 (5%), 72 h): 5c
degree of microbial growth (plate ranking) ([2]; Dicyandiamide 5,000 ppm, Challenge 3 (2.5%), 24 h): 5c
dilution plate count ([2]; Dicyandiamide 5,000 ppm, Challenge 3 (2.5%), 72 h): 8.0 × 10^6
degree of microbial growth (plate ranking) ([2]; Dicyandiamide 10,000 ppm, Challenge 1 (10%), 24 h): 5c
degree of microbial growth (plate ranking) ([2]; Dicyandiamide 10,000 ppm, Challenge 1 (10%), 72 h): 1 (a “1” ranking indicates one (1) through five (5) observed colony forming unit (cfu), i.e., the plate was very lightly contaminated)
degree of microbial growth (plate ranking) ([2]; Dicyandiamide 10,000 ppm, Challenge 2 (5%), 72 h): 5 (a “5” ranking indicates greater than (45) cfu, i.e., the plate was severely contaminated)
degree of microbial growth (plate ranking) ([2]; Dicyandiamide 10,000 ppm, Challenge 3 (2.5%), 24 h): 5 (a “5” ranking indicates greater than (45) cfu, i.e., the plate was severely contaminated)
dilution plate count ([2]; Dicyandiamide 10,000 ppm, Challenge 3 (2.5%), 72 h): 4.2 × 10^6
efficacy of dicyandiamide alone compared to the blank ([2]; Table 1, not in combination with BIT): no significant difference compared to the blank

Cn1sccc1=O [MIT − 50, 2-methyl-4-isothiazolin-3-one]
degree of microbial growth (plate ranking) (microbial growth; MIT 15 ppm as active (MIT-50 30 ppm), 1st challenge, 24): 5 (a “5” ranking indicates greater than (45) cfu, i.e., the plate was severely contaminated)
degree of microbial growth (plate ranking) (microbial growth; MIT 15 ppm as active (MIT-50 30 ppm), 1st challenge, 72): 5 (a “5” ranking indicates greater than (45) cfu, i.e., the plate was severely contaminated)
degree of microbial growth (plate ranking) (microbial growth; MIT 15 ppm as active (MIT-50 30 ppm), 2nd challenge, 72): 5 (a “5” ranking indicates greater than (45) cfu, i.e., the plate was severely contaminated)
degree of microbial growth (plate ranking) (microbial growth; MIT 15 ppm as active (MIT-50 30 ppm), 3rd challenge, 24): 5 (a “5” ranking indicates greater than (45) cfu, i.e., the plate was severely contaminated)
degree of microbial growth (plate ranking) (microbial growth; MIT 15 ppm as active (MIT-50 30 ppm), 3rd challenge, 72): 5 (a “5” ranking indicates greater than (45) cfu, i.e., the plate was severely contaminated)
degree of microbial growth (plate ranking) (microbial growth; MIT 20 ppm as active (MIT-50 40 ppm), 1st challenge, 24): 5 (a “5” ranking indicates greater than (45) cfu, i.e., the plate was severely contaminated)
degree of microbial growth (plate ranking) (microbial growth; MIT 20 ppm as active (MIT-50 40 ppm), 1st challenge, 72): 5 (a “5” ranking indicates greater than (45) cfu, i.e., the plate was severely contaminated)
degree of microbial growth (plate ranking) (microbial growth; MIT 20 ppm as active (MIT-50 40 ppm), 2nd challenge, 72): 5 (a “5” ranking indicates greater than (45) cfu, i.e., the plate was severely contaminated)
degree of microbial growth (plate ranking) (microbial growth; MIT 20 ppm as active (MIT-50 40 ppm), 3rd challenge, 24): 5 (a “5” ranking indicates greater than (45) cfu, i.e., the plate was severely contaminated)
degree of microbial growth (plate ranking) (microbial growth; MIT 20 ppm as active (MIT-50 40 ppm), 3rd challenge, 72): 5 (a “5” ranking indicates greater than (45) cfu, i.e., the plate was severely contaminated)
degree of microbial growth (plate ranking) (microbial growth; MIT 25 ppm as active (MIT-50 50 ppm), 1st challenge, 24): 5 (a “5” ranking indicates greater than (45) cfu, i.e., the plate was severely contaminated)
degree of microbial growth (plate ranking) (microbial growth; MIT 25 ppm as active (MIT-50 50 ppm), 1st challenge, 72): 2 (a “2” ranking indicates six (6) through fifteen (15) cfu, i.e., the plate was lightly contaminated)
degree of microbial growth (plate ranking) (microbial growth; MIT 25 ppm as active (MIT-50 50 ppm), 2nd challenge, 72): 5 (a “5” ranking indicates greater than (45) cfu, i.e., the plate was severely contaminated)
degree of microbial growth (plate ranking) (microbial growth; MIT 25 ppm as active (MIT-50 50 ppm), 3rd challenge, 24): 5 (a “5” ranking indicates greater than (45) cfu, i.e., the plate was severely contaminated)
degree of microbial growth (plate ranking) (microbial growth; MIT 25 ppm as active (MIT-50 50 ppm), 3rd challenge, 72): 5 (a “5” ranking indicates greater than (45) cfu, i.e., the plate was severely contaminated)
passing result of challenge test (microbial growth; MIT 30 ppm as active (MIT-50 60 ppm)): MIT − 50 60 ppm (30)*
degree of microbial growth (plate ranking) (microbial growth; MIT 30 ppm as active (MIT-50 60 ppm), 1st challenge, 24): 5 (a “5” ranking indicates greater than (45) cfu, i.e., the plate was severely contaminated)
degree of microbial growth (plate ranking) (microbial growth; MIT 30 ppm as active (MIT-50 60 ppm), 1st challenge, 72): 0
degree of microbial growth (plate ranking) (microbial growth; MIT 30 ppm as active (MIT-50 60 ppm), 2nd challenge, 72): 5 (a “5” ranking indicates greater than (45) cfu, i.e., the plate was severely contaminated)
degree of microbial growth (plate ranking) (microbial growth; MIT 30 ppm as active (MIT-50 60 ppm), 3rd challenge, 24): 5 (a “5” ranking indicates greater than (45) cfu, i.e., the plate was severely contaminated)
degree of microbial growth (plate ranking) (microbial growth; MIT 30 ppm as active (MIT-50 60 ppm), 3rd challenge, 72): 0
passing result of challenge test (microbial growth; MIT 35 ppm as active (MIT-50 70 ppm)): MIT − 50 70 ppm (35)*
degree of microbial growth (plate ranking) (microbial growth; MIT 35 ppm as active (MIT-50 70 ppm), 1st challenge, 24): 5 (a “5” ranking indicates greater than (45) cfu, i.e., the plate was severely contaminated)
degree of microbial growth (plate ranking) (microbial growth; MIT 35 ppm as active (MIT-50 70 ppm), 1st challenge, 72): 0
degree of microbial growth (plate ranking) (microbial growth; MIT 35 ppm as active (MIT-50 70 ppm), 2nd challenge, 72): 0
degree of microbial growth (plate ranking) (microbial growth; MIT 35 ppm as active (MIT-50 70 ppm), 3rd challenge, 24): 5 (a “5” ranking indicates greater than (45) cfu, i.e., the plate was severely contaminated)
degree of microbial growth (plate ranking) (microbial growth; MIT 35 ppm as active (MIT-50 70 ppm), 3rd challenge, 72): 0
MIT concentration giving passing results (microbial growth; MIT alone, no guanidine enhancer): ≥ 30 ppm
